Source: patent US6455528B1, “Piperazine compounds and medicinal use thereof” (Mitsubishi Pharma Corporation, priority 1997, dated 2002)

What was measured:
TNF-α production = experiment: Effect on TNF-α production in mice (in vivo), LPS-induced; conditions: serum TNF-α 90 min after LPS 500 μg/kg i.p.; test compound orally 30 min before LPS; ratio relative to test compound non-administration group
Procedure: (§1) Since the TNF-α concentration in serum reaches a peak at 90 min after LPS administration, the TNF-α concentration in the serum at this point was measured using FACTOR TEST mTNF-α (manufactured by Genzyme) and the IL-10 concentration at the same point of time was also measured using Murine IL-10 ELISA Kit (manufactured by Endogen). […] The effect of the test compound on the TNF-α production and IL-10 production was calculated by the following formula as the ratio relative to the test compound non-administration group.

IL-10 production = experiment: Effect on IL-10 production in mice (in vivo), LPS-induced; conditions: serum IL-10 90 min after LPS 500 μg/kg i.p.; test compound orally 30 min before LPS; ratio relative to test compound non-administration group
Procedure: as §1

SMILES	TNF-α production (%) (TNF-α production)	IL-10 production (%) (IL-10 production)	melting point [°C]
CC(=O)NCc1ccc(CN2CCN(c3ncccn3)CC2)cc1 [Example 72, N-(4-((4-(Pyrimidin-2-yl)piperazin-1-yl)methyl)phenylmethyl)acetamide]	20	510	120 to 121
CC(=O)NC(C)(C)c1ccc(CN2CCN(c3ccc(F)cc3)CC2)cc1 [Example 51, N-(1-Methyl-1-(4-((4-(4-fluorophenyl)-piperazin-1-yl)methyl)phenyl)ethyl)acetamide]	16	533	104.5 to 106
CC(=O)NCc1ccc(CN2CCN(c3ccccn3)CC2)cc1 [Example 82, N-(4-((4-(Pyridin-2-yl)piperazin-1-yl)methyl)phenylmethyl)acetamide]	11	742	100 to 101
CC(=O)NC(C)c1ccc(CN2CCN(c3ccc(F)cc3)CC2)cc1 (stereo not drawn) [Example 48, N-(1-(4-((4-(4-Fluorophenyl)piperazin-1-yl)methyl)phenyl)ethyl)acetamide]	12	888	101 to 103
